Data as given in patent publication US8653257B2, “Dibenzothiazepine derivatives and uses thereof—424” (Astrazeneca AB, priority 2008, dated 2014).
pKi: −log10 of the molar value.

Key:
[1] = target: dopamine D2s receptor (Homo sapiens (Human), UniProt P14416); test: D2 antagonist GTPγS functional assay; assay type: biochemical; details: antagonist mode
Description: In vitro experimental assays can generally be carried out as described herein. Briefly, CHO-K1 cells stably transfected with the dopamine D2s receptor can be used in the experiments and maintained in Ham's F12 culture medium supplemented with 2 mM L-glutamine, 10% FBS, and 500 μg/ml Hygromycin.
GTPgS assay can be performed substantially as described by Lazareno, Methods in Molecular Biology, 1999, 106, 231-245. Antagonist activity of compounds can be determined by the ability of test compounds to block dopamine-stimulated [^35S]-GTPγS binding to cell membranes from D2s stably-transfected CHO cells.

[2] = system: D-Amphetamine-induced Hyperlocomotor Activity; test: D-Amphetamine-induced hyperlocomotor activity (LMA) in habituated rat model; assay type: in vivo, male Long Evans rats; details: 30 mg/kg and 60 mg/kg (sc)
Description: Studies in vivo can be used to determine the antipsychotic effect and are generally carried out as follows. Briefly, D-Amphetamine-induced Hyperlocomotor Activity (LMA) in a Habituated Rat Model can be assessed in male Long Evans rats using a paradigm that includes a habituation phase followed by administration of 1 mg/kg D-amphetamine. Animals can be allowed to acclimatize to the testing room for 1 hour before being weighed and placed into activity chambers. Thirty minutes after LMA measurement is begun, animals can be briefly removed, dosed via the sub-cutaneous route (s.c.) with vehicle or test drug at different doses and returned to the chambers. After a further 30 minutes, animals can again be removed and dosed with vehicle or D-amphetamine at 1 mg/kg (s.c.). After returning the animals to the activity chambers, LMA can be assessed for a further 60 minutes. Haloperidol (0.1 mg/kg dissolved in H2O) can be administered 15 minutes prior to D-amphetamine via the s.c. route. Statistical analysis can be made of total distance traveled after D-amphetamine administration using ANOVA and Tukey's post hoc analysis where appropriate. All values can be expressed as Mean and SD.

[3] = system: Conditioned Avoidance Responding; test: Conditioned avoidance responding (CAR) assay; assay type: in vivo, Male Long-Evans rats; details: 30 mg/kg and 60 mg/kg (sc), rat
Description: Male Long-Evans rats can be trained to traverse to the opposite side of a standard shuttle cage following presentation of an auditory and visual stimulus to avoid delivery of electric shock to the floor of the cage. Daily sessions can consist of up to 80 trials. If a shock is delivered, animals have the opportunity to escape the shock by traversing to the opposite side of the cage. Drug can be administered (via s.c. or p.o. route) 60 minutes prior to testing and the percentage of trials in which shock is avoided and escaped can be recorded.

[4] = target: H1 receptor (Homo sapiens (Human), UniProt P35367); test: H1 receptor binding; set-up: species or system Hu; details: one average result
Source text: The H1 receptor binding method can be carried out in accordance with De Backer et al., Biochem. Biophys. Res. Commun., 1993, 197(3), 1601.

Chain of dopamine D2s receptor (P14416 other isoform, or with tags, fused parts or gaps): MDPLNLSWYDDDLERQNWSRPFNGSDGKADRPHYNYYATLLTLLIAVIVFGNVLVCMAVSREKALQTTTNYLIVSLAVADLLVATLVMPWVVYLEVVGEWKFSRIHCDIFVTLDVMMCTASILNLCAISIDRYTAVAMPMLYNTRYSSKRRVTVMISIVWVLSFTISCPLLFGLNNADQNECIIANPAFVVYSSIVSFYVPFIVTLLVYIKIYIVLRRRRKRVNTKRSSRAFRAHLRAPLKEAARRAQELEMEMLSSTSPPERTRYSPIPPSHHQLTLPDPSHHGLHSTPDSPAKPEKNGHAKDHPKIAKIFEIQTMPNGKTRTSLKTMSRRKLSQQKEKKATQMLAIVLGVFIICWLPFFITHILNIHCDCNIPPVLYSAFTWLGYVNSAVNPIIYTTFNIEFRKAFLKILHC
Chain of H1 receptor (P35367 whole entry): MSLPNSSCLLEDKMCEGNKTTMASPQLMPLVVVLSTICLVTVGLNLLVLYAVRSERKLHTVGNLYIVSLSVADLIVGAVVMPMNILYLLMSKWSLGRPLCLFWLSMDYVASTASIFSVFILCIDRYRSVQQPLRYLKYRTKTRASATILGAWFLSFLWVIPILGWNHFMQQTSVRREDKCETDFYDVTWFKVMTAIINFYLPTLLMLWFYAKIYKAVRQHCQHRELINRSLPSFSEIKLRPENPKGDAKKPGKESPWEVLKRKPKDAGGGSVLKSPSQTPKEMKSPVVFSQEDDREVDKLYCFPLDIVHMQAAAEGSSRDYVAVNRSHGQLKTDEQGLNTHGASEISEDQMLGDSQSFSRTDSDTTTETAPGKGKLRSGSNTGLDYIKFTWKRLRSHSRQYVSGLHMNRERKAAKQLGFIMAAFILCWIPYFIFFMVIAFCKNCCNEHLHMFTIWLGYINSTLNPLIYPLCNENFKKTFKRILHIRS

Structure (SMILES) | D2 Ant GTPγS Top Effect [1] | activity in D-amphetamine-induced hyperlocomotor activity [2] | activity in conditioned avoidance responding [3] | pKi [4]
CN1CCN(C2=Nc3ccccc3Sc3ccc(Cl)cc32)CC1 [2-Chloro-11-(4-methyl-piperazin-1-yl)-dibenzo[b,f][1,4]thiazepine] | 100 |  |  | 
Clc1ccc2c(c1)C(N1CCNCC1)=Nc1ccccc1S2 [2-Chloro-11-piperazin-1-yl-dibenzo[b,f][1,4]thiazepine] | 100 |  |  | 
CN1CCN(C2=Nc3ccccc3Sc3ccc(F)cc32)CC1 [2-Fluoro-11-(4-methyl-piperazin-1-yl)-dibenzo[b,f][1,4]thiazepine] | 100 |  |  | 
c1ccc2c(c1)N=C(N1CCNCC1)c1ccccc1S2 [11-Piperazin-1-yl-dibenzo[b,f][1,4]thiazepine] | 89 |  |  | 
Fc1ccc2c(c1)C(N1CCNCC1)=Nc1ccccc1S2 [Example 1, 2-fluoro-11-(piperazin-1-yl)dibenzo[b,f][1,4]thiazepine] | 97 | showed activity | showed activity | ~8.15
